What was measured:
Human LBAT = molecular target: T1, Human LBAT (Homo sapiens, UniProt Q14973); assay: LBAT (h/m) assay, human LBAT-overexpressing cells, 3H-taurocholic acid uptake; type: cell-based; conditions: 0.3 μM 3H-taurocholic acid and 7.5 μM cold taurocholic acid, 20 minutes, read-out: hLBAT IC50
T1 construct: expressed in transfected cells; Geneticin selection
T1 sequence (Q14973 1-349): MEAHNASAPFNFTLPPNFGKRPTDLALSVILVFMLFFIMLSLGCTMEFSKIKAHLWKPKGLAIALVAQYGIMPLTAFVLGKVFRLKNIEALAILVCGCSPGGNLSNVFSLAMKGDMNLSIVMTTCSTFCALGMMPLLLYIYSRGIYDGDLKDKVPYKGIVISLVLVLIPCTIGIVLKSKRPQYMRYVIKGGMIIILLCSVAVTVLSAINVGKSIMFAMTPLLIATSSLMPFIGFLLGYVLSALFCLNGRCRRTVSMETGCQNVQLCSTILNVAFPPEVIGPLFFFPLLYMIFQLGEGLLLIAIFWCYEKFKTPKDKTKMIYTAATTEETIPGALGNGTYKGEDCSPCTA
Method: 20,000 cells (Human or Mouse LBAT-overexpressing cells) were seeded in 96-wells plate (Corning CLS3809) in 100 μL MEM-alpha medium (Gibco 12571-063) supplemented with 10% FBS (Gibco 10438026) containing Geneticin (Gibco 10131-027) (1 mg/mL) and incubated at 37° C. in 5% CO2 for 24 hours. After incubation, media was decanted from the wells and cells were washed two times with 300 μL of basal MEM-alpha medium (FBS-free). After decanting basal MEM-alpha medium each time, plates were tapped against paper towel to ensure maximum removal of residual media.
For human LBAT, incubation mix was prepared by adding test inhibitor dilutions (3-fold serial dilution in DMSO (Sigma D2650), 10 points) in MEM-alpha (without FBS) containing 0.3 μM 3H-taurocholic acid (ARC ART-1368) and 7.5 μM cold taurocholic acid (Sigma T4009) (maintaining 0.2% final DMSO concentration). For mouse LBAT, incubation mix was prepared by adding test inhibitor dilutions (3-fold serial dilution in DMSO, 10 points) in MEM-alpha (without FBS) containing 0.3 μM 3H-taurocholic acid and 25 μM cold taurocholic acid maintaining 0.2% final DMSO concentration).
50 μL of incubation mix containing test inhibitors was then added to the wells (in duplicate) and the plates were incubated for 20 minutes in a CO2 incubator at 37° C. After incubation, the reaction was stopped by keeping the plates on ice water mix for 2-3 minutes and then the incubation mix was aspirated completely from the wells. The wells were washed two times with 250 μL of chilled unlabeled 1 mM taurocholic acid dissolved in HEPES (Gibco 15630080)-buffered (10 mM) HBSS (Gibco 14175079) (pH 7.4). The plates were tapped against a paper towel after every wash to ensure maximum removal of blocking buffer.
100 μL of MicroScint-20 (PerkinElmer 6013621) was added to the wells and kept overnight at room temperature before reading the plates in TopCount NXT™ Microplate Scintillation and Luminescence Counter from PerkinElmer under 3H Test protocol (set at 120 seconds reading time per well, with normal plate orientation).
(§1) All test compounds were provided in powder form at room temperature. 10 mM DMSO stocks of the test compounds were prepared, aliquoted and stored at −20° C. From the 10 mM DMSO stock of the compounds, a 3-fold serial dilution in DMSO was prepared to get a total of 10 dilutions of the test compounds. 0.5 μL of this dilution in DMSO was added to 250 μL of FBS-free basal media containing 3H-taurocholic acid and cold taurocholic acid to prepare the incubation mixture.

Human IBAT = molecular target: T2, Human IBAT (Homo sapiens, UniProt Q12908); assay: IBAT (h/m) assay, human IBAT-overexpressing cells, 3H-taurocholic acid uptake; type: cell-based; conditions: highest test concentration 10 μM, 20 minutes, read-out: hIBAT IC50
T2 construct: expressed in transfected cells; Puromycin selection
T2 sequence (Q12908 1-348): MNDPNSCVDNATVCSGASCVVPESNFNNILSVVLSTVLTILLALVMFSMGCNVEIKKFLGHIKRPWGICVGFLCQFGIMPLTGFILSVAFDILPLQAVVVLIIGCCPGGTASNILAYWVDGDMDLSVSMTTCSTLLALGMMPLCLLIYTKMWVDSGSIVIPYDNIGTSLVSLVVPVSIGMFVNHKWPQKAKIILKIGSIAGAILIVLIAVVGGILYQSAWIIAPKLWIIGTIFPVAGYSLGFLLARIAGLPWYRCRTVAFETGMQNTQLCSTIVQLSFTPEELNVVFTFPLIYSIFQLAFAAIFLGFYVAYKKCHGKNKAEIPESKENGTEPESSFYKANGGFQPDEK
Method: 10,000 cells (Human or Mouse IBAT-overexpressing cells) were seeded in 96-wells plate (Corning CLS3809) in 200 μL MEM-alpha medium (Gibco 12571-063) supplemented with 10% FBS (Gibco 10438026) containing Puromycin (Gibco A1113803) (10 μg/mL) and incubated at 37° C. in 5% CO2 for 48 hours. After incubation, media was decanted from the wells and cells were washed two times with 300 μL of basal MEM-alpha medium (FBS-free). After decanting basal MEM-alpha medium each time, plates were tapped against paper towel to ensure maximum removal of residual media. Test inhibitor dilutions (highest test concentration being 10 μM, 3-fold serial dilution, 10 points) prepared in DMSO (Sigma D2650) were added in incubation mix (maintaining 0.2% final DMSO concentration) containing 0.25 μM 3H-taurocholic acid (ARC ART-1368) and 5 μM of cold taurocholic acid (Sigma T4009). 50 μL of incubation mix containing test inhibitors was then added to the wells (in duplicate) and the plates were incubated for 20 minutes in a CO2 incubator at 37° C. After incubation, the reaction was stopped by keeping the plates on ice water mix for 2-3 minutes and then the incubation mix was aspirated completely from the wells. The wells were washed two times with 250 μL of chilled unlabeled 1 mM taurocholic acid dissolved in HEPES (Gibco 15630080)-buffered (10 mM) HBSS (Gibco 14175079) (pH 7.4). The plates were tapped against a paper towel after every wash to ensure maximum removal of blocking buffer.
100 μL of MicroScint-20 (PerkinElmer 6013621) was added to the wells and kept overnight at room temperature before reading the plates in TopCount NXT™ Microplate Scintillation and Luminescence Counter from PerkinElmer under 3H Test protocol (set at 120 seconds reading time per well).
as §1

[1] = Bidirectional permeability assay (Caco-2 cells); type: in vitro ADME; conditions: human, 10 μM in FaSSIF buffer; for Papp A→B at 120 min, 10 μM: Caco-2, pH 7.4, absorptive direction (A2B); for Papp B→A at 120 min, 10 μM: Caco-2, pH 7.4, secretory direction (B2A)
Source text: HepaRG-Based Assay Protocol

Bioavailability studies = type: in vivo, mice (C57BL/6); conditions: male, mouse, plasma; C57BL/6 mice; single intravenous dose 1 mg/kg and single oral dose 10 mg/kg
Method: Male mice (C57BL/6 or CD1) or Wistar rats of 8-9 weeks old were used. For each test compound, two groups of 3 animals each were used. One group was administered a single intravenous dose of 1 mg/kg (vehicle 100% DMSO) through the tail vein and the other group was administered a single oral dose of 10 mg/kg through gavage needle. The group that was administered an oral dose was fasted overnight. Blood samples were collected after 0.083, 0.25, 0.5, 1, 2, 4, 6, 8 and 24 hours following intravenous administration, and after 0.25, 0.5, 1, 2, 4, 6, 8 and 24 hours following oral administration. Blood samples were taken from saphenous vein. 0.2% EDTA was used as the anticoagulant. The samples were analyzed by a discovery grade bioanalytical method developed for the estimation of test compound in plasma, using an LC-MS/MS system.

OATP KO mice = assay: Effect of LBAT selective compounds on serum bile acid levels in OATP KO mice; type: in vivo; conditions: for effect on serum bile acid levels: oral administration, FIGS. 1 to 4
Source text: Male OATP KO mice (Oatp1a/1b cluster knockout mice, Taconic, USA) aged 8 to 9 weeks were used in the studies. After completion of quarantine and acclimatization period, animals were randomized based on body weight into experimental groups (n=4 mice in each). On the experimental day, a baseline blood sample was collected followed by oral dosing of vehicle (0.5% CMC, 0.1% Tween 80) or compound of Example 3, 6, 13 or 15 at the indicated doses. Blood samples were then collected at various time points after dose (indicated in each graph). Blood was allowed to clot, and serum was collected by centrifugation at 3000 g, 4° C. for 15 minutes and stored at −80° C. for further analysis. The total bile acid concentration in each serum sample was determined by using the CELL BIOLABS Total Bile Acids kit (STA631) according to manufacturer's instructions. Mean±SEM, n=4.

Row | Structure (SMILES) | IC50 (Human LBAT) [nM] | IC50 (Human IBAT) [nM] | Papp A→B at 120 min, 10 μM [1] [×10⁻⁶ cm/s] | Papp B→A at 120 min, 10 μM [1] [×10⁻⁶ cm/s] | bioavailability (Bioavailability studies) [%] | effect on serum bile acid levels (OATP KO mice) | serum bile acids levels (OATP KO mice; oral 30 mg/kg, within one hour after dosing)
1 | CCCCC1CN(c2ccccc2)c2cc(SC)c(O/C=C/C(=O)O)cc2S(=O)(=O)C1 (racemic) [Example 1, (E)-3-((3-butyl-7-(methylthio)-1,1-dioxido-5-phenyl-2,3,4,5-tetrahydro-1,5-benzothiazepin-8-yl)oxy)acrylic Acid] | 9.9 | ≥ 10000 | 25.6 | 19.1 |  |  | 
2 | CCCC[C@H]1CN(c2ccccc2)c2cc(SC)c(O/C=C/C(=O)O)cc2S(=O)(=O)C1 (single isomer, unassigned) [Example 3] | 4.8 |  | 24 | 18.8 | 50 | increased serum bile acid levels | 
3 | CCCC[C@H]1CN(c2ccccc2)c2cc(SC)c(O/C=C/C(=O)O)cc2S(=O)(=O)N1C (single isomer, unassigned) [Example 15] | 2.2 |  | 14.1 | 13 | 50 | increased serum bile acid levels | 
4 | CCCCC1CN(c2ccccc2)c2cc(SC)c(O/C=C(\F)C(=O)O)cc2S(=O)(=O)C1 (stereo not shown) [Example 4, (Z)-3-((3-butyl-7-(methylthio)-1,1-dioxido-5-phenyl-2,3,4,5-tetrahydro-1,5-benzothiazepin-8-yl)oxy)-2-fluoroacrylic Acid] | 1.9 | 1510 | 2.4 | 6 |  |  | 
5 | CCCCC1CN(c2ccccc2)c2cc(SC)c(O/C=C(\F)C(=O)O)cc2S(=O)(=O)N1 (stereo not shown) [Example 10, (Z)-3-((3-butyl-7-(methylthio)-1,1-dioxido-5-phenyl-2,3,4,5-tetrahydro-1,2,5-benzothiadiazepin-8-yl)oxy)-2-fluoroacrylic Acid] | 1 | 1140 | 0.5 | 1.9 |  |  | 

More lines, main results first:

Row | IC50 (Human LBAT) [nM] | IC50 (Human IBAT) [nM] | Papp A→B at 120 min, 10 μM [1] [×10⁻⁶ cm/s] | Papp B→A at 120 min, 10 μM [1] [×10⁻⁶ cm/s] | bioavailability (Bioavailability studies) [%] | Structure (SMILES) | effect on serum bile acid levels (OATP KO mice) | serum bile acids levels (OATP KO mice; oral 30 mg/kg, within one hour after dosing)
6 | 1 | 3060 | 12.6 | 9.3 |  | CCCCC1CN(c2ccc(F)cc2)c2cc(SCC)c(O/C=C/C(=O)O)cc2S(=O)(=O)N1C (racemic) [Example 23, (E)-3-((3-butyl-7-(ethylthio)-5-(4-fluorophenyl)-2-methyl-1,1-dioxido-2,3,4,5-tetrahydro-1,2,5-benzothiadiazepin-8-yl)oxy)acrylic Acid] |  | 
7 | 1.4 | 1440 | 2.7 | 5.5 | 26 | CCCC[C@@H]1CN(c2ccccc2)c2cc(SC)c(O/C=C(\F)C(=O)O)cc2S(=O)(=O)C1 (single isomer, unassigned) [Example 6] | increased serum bile acid levels | 
8 | 0.6 | 568 | 3.1 | 9.6 | 61 | CCCC[C@@H]1CN(c2ccccc2)c2cc(SC)c(O/C=C(\F)C(=O)O)cc2S(=O)(=O)N1C (single isomer, unassigned) [Example 13] | increased serum bile acids in a dose-dependent manner | about 100 μmol/L
9 | 2.4 | 5280 | 15 | 9.7 |  | CCCC[C@H]1CN(c2ccccc2)c2cc(SCC)c(O/C=C/C(=O)O)cc2S(=O)(=O)N1C (single isomer, unassigned) [Example 18] |  | 

Reference: patent US11708340B2, “Benzothia(di)azepine compounds and their use as bile acid modulators” (Albireo AB, priority 2019, dated 2023)
